From patent publication US11098063B2, “Diazabicyclic substituted imidazopyrimidines and their use for the treatment of breathing disorders” (Bayer Aktiengesellschaft, priority 2017, dated 2021)

Columns and labels:
Format in all cases: cell-based
[1] = molecular target: T1, human TASK-3 (Homo sapiens (Human), UniProt Q9NPC2); test: Two-electrode voltage clamp analysis of human TASK-3 channel in Xenopus laevis oocytes; conditions: human TASK-3 expressed in Xenopus laevis oocytes, room temperature
Procedure: (§1) B-1. In Vitro Electrophysiological Analysis of the Human TASK-1 and TASK-3 Channels Via Two-Electrode Voltage Clamp Technique in Xenopus laevis Oocytes
(§2) Xenopus laevis oocytes were selected as described elsewhere by way of illustration [Decher et al., FEBS Lett. 492, 84-89 (2001)]. Subsequently, the oocytes were injected with 0.5-5 ng of a cRNA solution coding for TASK-1 or TASK-3. For the electrophysiological analysis of the channel proteins expressed in the oocytes, the two-electrode voltage clamp technique [Stühmer, Methods Enzymol. 207, 319-339 (1992)] was used. The measurements were conducted as described [Decher et al., FEBS Lett. 492, 84-89 (2001)] at room temperature (21-22° C.) using a Turbo TEC 10CD amplifier (NPI), recorded at 2 kHz and filtered with 0.4 kHz. Substance administration was performed using a gravitation-driven perfusion system. Here, the oocyte is located in a measuring chamber and exposed to the solution stream of 10 ml/min. The level in the measuring chamber is monitored and regulated by sucking off the solution using a peristaltic pump.

[2] = molecular target: T2, human TASK-1 (Homo sapiens (Human), UniProt O14649); test: Inhibition of recombinant TASK-1 in stably transfected CHO cells (voltage-sensitive dye, KCl depolarization); conditions: depolarization by 40 mM potassium chloride
Outline: (§3)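 Stably transfected CHO cells loaded with a voltage-sensitive membrane-potential dye were depolarized with 40 mM KCl in the presence of compound. IC50 is the concentration blocking half of the KCl-induced depolarization.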

[3] = molecular target: T2, human TASK-1; test: Two-electrode voltage clamp analysis of human TASK-1 channel in Xenopus laevis oocytes; conditions: human TASK-1 expressed in Xenopus laevis oocytes, room temperature
Procedure: as §1, §2

[4] = molecular target: T1, human TASK-3; test: Inhibition of recombinant TASK-3 in stably transfected CHO cells (voltage-sensitive dye, KCl depolarization); conditions: depolarization by 40 mM potassium chloride
Outline: as §3

T2 sequence (O14649 whole entry): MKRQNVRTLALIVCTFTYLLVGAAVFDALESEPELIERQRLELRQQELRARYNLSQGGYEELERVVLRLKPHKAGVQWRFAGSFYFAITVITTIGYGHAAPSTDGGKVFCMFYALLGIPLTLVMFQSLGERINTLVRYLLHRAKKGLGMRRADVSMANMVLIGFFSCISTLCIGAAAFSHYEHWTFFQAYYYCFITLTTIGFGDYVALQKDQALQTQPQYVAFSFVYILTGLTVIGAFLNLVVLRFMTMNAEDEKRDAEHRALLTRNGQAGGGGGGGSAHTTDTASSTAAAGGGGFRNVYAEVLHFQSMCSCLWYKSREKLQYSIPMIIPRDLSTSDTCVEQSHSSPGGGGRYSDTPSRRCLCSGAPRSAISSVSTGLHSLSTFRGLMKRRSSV
T1 sequence (Q9NPC2 whole entry): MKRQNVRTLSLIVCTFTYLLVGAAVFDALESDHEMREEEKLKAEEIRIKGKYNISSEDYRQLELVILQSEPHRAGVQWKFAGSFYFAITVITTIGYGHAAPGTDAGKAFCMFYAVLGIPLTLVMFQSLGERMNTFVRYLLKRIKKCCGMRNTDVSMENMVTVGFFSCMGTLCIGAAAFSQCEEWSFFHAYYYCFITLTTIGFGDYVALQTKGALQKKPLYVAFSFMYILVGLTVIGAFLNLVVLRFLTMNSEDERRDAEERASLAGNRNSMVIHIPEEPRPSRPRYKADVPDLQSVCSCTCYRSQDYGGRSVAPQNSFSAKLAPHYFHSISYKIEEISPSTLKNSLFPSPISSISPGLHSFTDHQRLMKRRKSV

With `COc1ccc(Cl)c(C(=O)N2CC3CCC2CN3Cc2c(-c3ccc(C(C)C)cc3)nc3ncccn23)n1` (single isomer, unassigned) [Example 26, (3-Chloro-6-methoxypyridin-2-yl)(5-{[2-(4-isopropylphenyl)imidazo[1,2-a]pyrimidin-3-yl]methyl}-2,5-diazabicyclo[2.2.2]oct-2-yl)methanone] the IC50 [1] was 0.14 ± 0.0346 µM, the IC50 [2] was 1.4 µM and the IC50 [3] was 0.0312 ± 0.0058 µM. It also gave an IC50 [4] of 0.016 µM.
`CC(C)c1ccc(-c2nc3ncccn3c2CN2CC3CCC2CN3C(=O)c2ncoc2C2CC2)cc1` (single isomer, unassigned) [Example 27, (5-Cyclopropyl-1,3-oxazol-4-yl)(5-{[2-(4-isopropylphenyl)imidazo[1,2-a]pyrimidin-3-yl]methyl}-2,5-diazabicyclo[2.2.2]oct-2-yl)methanone] showed an IC50 [1] of 0.367 ± 0.0676 µM, an IC50 [2] of 1.2 µM and an IC50 [3] of 0.0179 ± 0.0022 µM. The IC50 [4] was 0.01 µM.
Molecule `CC(C)c1ccc(-c2nc3ncccn3c2CN2CC3COCC(C2)N3C(=O)c2cccc(OC(F)F)n2)cc1` [Example 19, [6-(Difluoromethoxy)pyridin-2-yl](7-{[2-(4-isopropylphenyl)imidazo[1,2-a]pyrimidin-3-yl]methyl}-3-oxa-7,9-diazabicyclo[3.3.1]non-9-yl)methanone] has an IC50 [1] of 0.774 ± 0.0671 µM, an IC50 [2] of 22 µM and an IC50 [3] of 0.239 ± 0.0027 µM. It also gave an IC50 [4] of 0.059 µM.
Molecule `COc1ccc(F)c(C(=O)N2CC3CCC2CN3Cc2c(-c3ccc(Cl)cc3)nc3ncccn23)n1` (stereo not shown) [Example 41] has an IC50 [1] of 0.0718 ± 0.0155 µM, an IC50 [2] of 1.5 µM and an IC50 [3] of 0.0444 ± 0.0044 µM. It also gave an IC50 [4] of 0.1 µM.
`CCCOC(=O)N1C2CCC1CN(Cc1c(-c3ccc(Cl)cc3)nc3ncccn13)C2` [Example 126, propyl 3-{[2-(4-chlorophenyl)imidazo[1,2-a]pyrimidin-3-yl]methyl}-3,8-diazabicyclo[3.2.1]octane-8-carboxylate] gave an IC50 [2] of 0.28 µM and an IC50 [4] of 0.014 µM.
With `O=C(OC1CCCCC1)N1C2CCC1CN(Cc1c(-c3ccc(Cl)cc3)nc3ncccn13)C2` [Example 128, cyclohexyl 3-{[2-(4-chlorophenyl)imidazo[1,2-a]pyrimidin-3-yl]methyl}-3,8-diazabicyclo[3.2.1]octane-8-carboxylate] the IC50 [2] was 2 µM and the IC50 [4] was 0.11 µM.
Work on `CC(C)c1ccc(-c2nc3ncccn3c2CN2CC3CCC(C2)N3C(=O)OC(C)(C)C)cc1` [Example 130, tert-Butyl 3-{[2-(4-isopropylphenyl)imidazo[1,2-a]pyrimidin-3-yl]methyl}-3,8-diazabicyclo[3.2.1]octane-8-carboxylate] yielded an IC50 [2] of 1.7 µM and an IC50 [4] of 0.21 µM.
With `CC(C)c1ccc(-c2nc3ncccn3c2CN2CC3CCC(C2)N3C(=O)c2ncoc2C2CC2)cc1` [Example 131, (5-Cyclopropyl-1,3-oxazol-4-yl)(3-{[2-(4-isopropylphenyl)imidazo[1,2-a]pyrimidin-3-yl]methyl}-3,8-diazabicyclo[3.2.1]oct-8-yl)methanone] the IC50 [2] was 3.5 µM and the IC50 [4] was 0.41 µM.
In the case of `CC(C)(C)OC(=O)N1C2CCC1CN(Cc1c(-c3ccc(C4CC4)cc3)nc3ncccn13)C2` [Example 132, tert-Butyl 3-{[2-(4-cyclopropylphenyl)imidazo[1,2-a]pyrimidin-3-yl]methyl}-3,8-diazabicyclo[3.2.1]octane-8-carboxylate], the IC50 [2] is reported as 1.7 µM and the IC50 [4] is reported as 0.41 µM.
In the case of `O=C(c1ccccc1F)N1C2CCC1CN(Cc1c(-c3ccc(C4CC4)cc3)nc3ncccn13)C2` [Example 133, (3-{[2-(4-cyclopropylphenyl)imidazo[1,2-a]pyrimidin-3-yl]methyl}-3,8-diazabicyclo[3.2.1]octan-8-yl)(2-fluorophenyl)methanone], the IC50 [2] is reported as 1.6 µM and the IC50 [4] is reported as 0.18 µM.
`O=C(C1CCCC1)N1C2CCC1CN(Cc1c(-c3ccc(C4CC4)cc3)nc3ncccn13)C2` [Example 134, cyclopentyl(3-{[2-(4-cyclopropylphenyl)imidazo[1,2-a]pyrimidin-3-yl]methyl}-3,8-diazabicyclo[3.2.1]octan-8-yl)methanone] was tested, and the IC50 [2] was 0.77 µM and the IC50 [4] was 0.097 µM.
In the case of `COc1ccc(F)c(C(=O)N2C3CCC2CN(Cc2c(-c4ccc(C5CC5)cc4)nc4ncccn24)C3)n1` [Example 135, (3-{[2-(4-cyclopropylphenyl)imidazo[1,2a]pyrimidin-3-yl]methyl}-3,8-diazabicyclo[3.2.1]octan-8-yl)(3-fluoro-6methoxypyridin-2-yl)methanone], the IC50 [2] is reported as 0.42 µM and the IC50 [4] is reported as 0.034 µM.
Molecule `COc1ccc(Cl)c(C(=O)N2C3CCC2CN(Cc2c(-c4ccc(C5CC5)cc4)nc4ncccn24)C3)n1` [Example 136, (3-chloro-6-methoxypyridin-2-yl)(3-{[2-(4-cyclopropylphenyl)imidazo[1,2-a]pyrimidin-3-yl]methyl}-3,8-diazabicyclo[3.2.1]octan-8-yl)methanone] has an IC50 [2] of 0.32 µM and an IC50 [4] of 0.041 µM.
`COc1cccc(C(=O)N2C3CCC2CN(Cc2c(-c4ccc(C5CC5)cc4)nc4ncccn24)C3)n1` [Example 137, (3-{[2-(4-cyclopropylphenyl)imidazo[1,2-a]pyrimidin-3-yl]methyl}-3,8-diazabicyclo[3.2.1]octan-8-yl)(6-methoxypyridin-2-yl)methanone] showed an IC50 [2] of 1.1 µM and an IC50 [4] of 0.18 µM.
`O=C(c1cccc(OC(F)F)n1)N1C2CCC1CN(Cc1c(-c3ccc(C4CC4)cc3)nc3ncccn13)C2` [Example 138, (3-{[2-(4-cyclopropylphenyl)imidazo[1,2-a]pyrimidin-3-yl]methyl}-3,8-diazabicyclo[3.2.1]octan-8-yl)[6-(difluoromethoxy)pyridin-2-yl]methanone] showed an IC50 [2] of 3.2 µM and an IC50 [4] of 0.29 µM.
Molecule `O=C(c1ncoc1C1CC1)N1C2CCC1CN(Cc1c(-c3ccc(C4CC4)cc3)nc3ncccn13)C2` [Example 139, (5-cyclopropyl-1,3-oxazol-4-yl)(3-{[2-(4-cyclopropylphenyl)imidazo[1,2-a]pyrimidin-3-yl]methyl}-3,8-diazabicyclo[3.2.1]octan-8-yl)methanone] has an IC50 [2] of 4.5 µM and an IC50 [4] of 0.47 µM.
